Usually solubility stands for how much of the substance goes into solution per volume. A low value points to a poorly soluble substance.

Our source for the solubility and elimination half-life values is patent EP1146864B1, “PH INDEPENDENT EXTENDED RELEASE PHARMACEUTICAL FORMULATION” (ABBOTT LABORATORIES, priority 1999, dated 2000).

The structures appear in SMILES notation.

The conditions of data set [1]: in children; cited from earlier work.

With `CCCC(CCC)C(=O)O` [Divalproex sodium, sodium hydrogen divalproate], the solubility was 1 mg/mL in the data set “physchem” (pH 1, simulated gastric fluid); 2 mg/mL in the data set “physchem” (pH 4.7, aqueous buffer); 3.4 mg/mL in “physchem” (pH 4.84, aqueous buffer); 21 mg/mL in the data set “physchem” (pH 5.87, aqueous buffer); 36 mg/mL in “physchem” (pH 6.17, aqueous buffer); 200 mg/mL in the data set “physchem” (pH 6.7, aqueous buffer).

Regarding `CCCC(CCC)C(=O)O` [valproic acid, 2-propylpentanoic acid], in data set [1], the elimination half-life result was “four and fourteen”.
